One series concerns the target T1, gastrin receptor (Cavia porcellus, UniProt H0VZC5).
T1 construct: Guinea pig stomach fundus was obtained from male Hartley guinea pigs; from tissue; host or cells: stomach fundus mucosal membranes of male Hartley guinea pigs
T1 sequence (H0VZC5 1-426): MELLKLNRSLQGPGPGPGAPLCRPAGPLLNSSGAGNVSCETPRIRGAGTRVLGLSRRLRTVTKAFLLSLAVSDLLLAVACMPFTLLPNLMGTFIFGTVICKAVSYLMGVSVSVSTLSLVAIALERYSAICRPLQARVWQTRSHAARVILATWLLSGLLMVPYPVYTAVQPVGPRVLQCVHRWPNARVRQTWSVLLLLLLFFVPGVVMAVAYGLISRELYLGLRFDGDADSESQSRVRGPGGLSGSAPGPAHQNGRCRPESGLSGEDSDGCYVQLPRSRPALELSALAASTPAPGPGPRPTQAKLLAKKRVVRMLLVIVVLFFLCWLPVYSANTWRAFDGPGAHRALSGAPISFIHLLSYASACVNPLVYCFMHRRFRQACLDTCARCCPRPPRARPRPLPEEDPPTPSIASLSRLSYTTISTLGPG
Kind of series: Gastrin binding to guinea pig stomach mucosal membranes (125I-gastrin I). Particulars: guinea pig stomach mucosal membranes; read-out: Gastrin IC50. Here is the method:
The method used for gastrin binding to guinea pig stomach mucosal membranes was similar to that described by Takeuchi, Speir and Johnson (Am. J. Physiol. 237(3): E284-E294, 1979). Guinea pig stomach fundus was obtained from male Hartley guinea pigs, 300-350 g, and the mucosa was scraped off with a glass slide. The mucosa was homogenized in 50 mM Tris buffer, pH 7.4, containing 1 mM phenylmethanesulfonyl fluoride using a Dounce glass homogenizer, and the suspension was centrifuged at 40,000 g for 10 min. The resulting pellet was resuspended and centrifuged once more, the final pellet was then suspended in 100 ml assay buffer per 1 guinea pig stomach to give a protein concentration of 200-300 μg/200 μl. The assay buffer consisted of 50 mM Tris buffer, pH 7.4, 5 mM MgCl2, 0.14 mg/ml bacitracin, and 1 μg/ml each of leupeptin, chymostatin, aprotinin and pepstatin. Reagent volumes for the assay were the same as those used for CCK binding to brain membranes. The radioactive ligand was 20 pM ^125 I-gastrin I, from DuPont NEN (NEX-176). The samples were incubated 3 hours at room temperature and filtered and counted as described for CCK binding to brain membranes. Compound samples were prepared and IC-50 values were determined as described for the CCK-brain receptor binding. Non-specific binding was determined using 100 nM gastrin I (human synthetic from Sigma Chemical Co.).

Series [1] deals with T2, peripheral type CCK receptors in rat pancreas (Rattus norvegicus, UniProt P30551).
T2 construct: Pancreas was obtained from male Sprague-Dawley rats; from tissue; host or cells: pancreas membranes of male Sprague-Dawley rats
T2 sequence (P30551 1-444): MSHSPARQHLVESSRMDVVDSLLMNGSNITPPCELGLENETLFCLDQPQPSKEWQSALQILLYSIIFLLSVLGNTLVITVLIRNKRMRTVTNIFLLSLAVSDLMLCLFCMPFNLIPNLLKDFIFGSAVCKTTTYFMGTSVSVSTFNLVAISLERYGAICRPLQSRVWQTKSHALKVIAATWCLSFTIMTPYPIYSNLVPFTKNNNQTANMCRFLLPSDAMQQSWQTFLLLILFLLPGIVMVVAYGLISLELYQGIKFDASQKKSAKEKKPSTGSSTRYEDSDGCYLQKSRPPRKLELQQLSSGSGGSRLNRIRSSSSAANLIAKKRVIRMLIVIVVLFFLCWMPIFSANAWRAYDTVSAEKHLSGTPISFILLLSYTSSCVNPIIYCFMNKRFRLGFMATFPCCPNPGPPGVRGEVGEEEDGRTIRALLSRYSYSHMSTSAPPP
Kind of series: Binding to peripheral type CCK receptors in rat pancreas (3H-L-364,718). Particulars: at 10 μM; read-out: Pancreas Percent Inhibition. The procedure, abridged:
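Washed pancreatic membranes from male Sprague-Dawley rats (150-200 g) incubated 1 h at room temperature with 0.4-0.6 nM ³H-L-364,718 in 50 mM Tris pH 7.4, 5 mM MgCl2, bacitracin, 5 mM DTT. Bound radioactivity counted after filtration; nonspecific binding defined with 100 nM L-364,718; IC50 determined.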

A further series can be described thus: pKa by titration. The note with it: 2:1 dmf:h2o, titration pKa.
The next series has as its target T3, brain CCK receptor (Mus musculus, UniProt P56481).
T3 construct: from tissue; host or cells: forebrain membranes of male CF-1 mice
T3 sequence (P56481 1-453): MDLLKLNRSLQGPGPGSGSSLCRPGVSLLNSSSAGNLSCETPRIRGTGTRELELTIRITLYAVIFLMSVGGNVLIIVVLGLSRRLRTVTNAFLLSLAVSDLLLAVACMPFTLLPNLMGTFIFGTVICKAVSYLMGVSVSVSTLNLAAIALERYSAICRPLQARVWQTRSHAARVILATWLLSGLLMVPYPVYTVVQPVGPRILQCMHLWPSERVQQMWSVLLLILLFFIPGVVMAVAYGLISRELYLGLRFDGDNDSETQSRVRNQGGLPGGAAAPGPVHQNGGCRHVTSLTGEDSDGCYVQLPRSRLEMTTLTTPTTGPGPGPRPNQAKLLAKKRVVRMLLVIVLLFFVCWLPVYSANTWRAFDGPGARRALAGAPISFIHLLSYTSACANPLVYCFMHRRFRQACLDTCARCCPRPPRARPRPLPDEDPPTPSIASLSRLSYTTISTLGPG
Kind of series: CCK receptor binding, mouse brain membranes (125I-CCK-8 sulfate). The note with it: for IC50: mouse brain membranes, read-out: Brain IC50.

Another series is described as follows: Catalepsy bar test. The class given is in vivo, Male Sprague-Dawley rats. Here is the method: Acute administration of classical antipsychotic drugs results in catalepsy. Production of catalepsy is thought to be predictive of Parkinson-like extrapyramidal side effects. Sanberg, et al., Neuroscience 102:748-759 (1988). […] Haloperidol, a classical anti-psychotic, was used as a reference.
Male Sprague-Dawley rats (290-350 g) were used in these studies. Catalepsy was evaluated using the bar test (Sanberg et al., Neurosci., 102,748-759, (1988); Ferre, et al., Pharm. Biochem. Beh., 35, 753-757 (1990). The bar apparatus consisted of a horizontal metal rod with a diameter of 1 cm, which was positioned 10 cm from the floor to the top of the bar. The animal was gently placed in front of the bar, and then its forepaws were lifted to rest on the bar. The length of time, in seconds, until both forepaws touched the floor (3 minutes maximum allowed) was recorded. A baseline measurement was taken prior to injection, and catalepsy was evaluated every 60 minutes for three hours after injection of the compounds (Table IV). In a separate set of experiments, the compounds of this invention were administered 60 minutes prior to the administration of haloperidol, and catalepsy was evaluated every 60 minutes for three hours after the haloperidol injection. Catalepsy scores of drug-treated animals were compared to haloperidol- or vehicle-treated animals at each time point using the analysis of variance (ANOVA) (Table V). Haloperidol (Research Biochemicals Inc.) was dissolved in distilled water and a small amount of 0.1N lactic acid. The compounds of this invention were prepared in 50% ethanol. The volume of all injections was 1 ml/kg.

Series [2] is described as follows: Block of haloperidol-induced catalepsy, bar test. The class given is in vivo, Male Sprague-Dawley rats. The note with it: vehicle pretreatment, then Hal. Here is the method: Further, compounds of this invention were evaluated for their ability to block haloperidol-induced catalepsy. […] More preferredly, R and R^1 are trans.
Male Sprague-Dawley rats (290-350 g) were used in these studies. […] In a separate set of experiments, the compounds of this invention were administered 60 minutes prior to the administration of haloperidol, and catalepsy was evaluated every 60 minutes for three hours after the haloperidol injection. Catalepsy scores of drug-treated animals were compared to haloperidol- or vehicle-treated animals at each time point using the analysis of variance (ANOVA) (Table V). Haloperidol (Research Biochemicals Inc.) was dissolved in distilled water and a small amount of 0.1N lactic acid. The compounds of this invention were prepared in 50% ethanol. The volume of all injections was 1 ml/kg.

The term IC50 denotes the point on the concentration scale where inhibition reaches its midpoint. As usually defined, the inhibition is the drop in the measured response relative to a control, in per cent. The pKa is the negative logarithm of the acid dissociation constant. Low readings indicate a group that gives up its proton readily, high ones a group that holds its proton tightly. In the case of `O=C1NN(C(=O)Nc2ccc(OCc3ccccc3)cc2)[C@@H](c2ccccc2)[C@@H]1c1ccccc1` (relative stereo) [Example 3, 1-[(4-Benzyloxyphenyl)aminocarbonyl]-4,5-diphenyl-3-pyrazolidinone], the half-inhibitory concentration (IC50) at gastrin receptor stood at 1100 nM; at brain CCK receptor, 54 nM. In addition, in series [1], the inhibition at 10 µM stood at 34%. Moreover, the pKa in the series “pKa by titration” (first or only value) worked out at 7.7.
For the compound `O=C(CCCN1CCC(O)(c2ccc(Cl)cc2)CC1)c1ccc(F)cc1` [Haloperidol], the “Catalepsy Score” value was 2.2 ± 0.3 s in the series “Catalepsy bar test” (0.25 mg/kg, 60 Min); 9.9 ± 2.7 s in “Catalepsy bar test” (0.25 mg/kg, 120 Min, * P < 0.001 vs vehicle); 23.1 ± 4.9 s in the series “Catalepsy bar test” (0.25 mg/kg, 180 Min, * P < 0.001 vs vehicle); 1.8 ± 1.1 s in “Catalepsy bar test” (0.25 mg/kg, Pre); 3.3 ± 1.7 s in the series “Catalepsy bar test” (0.5 mg/kg, 60 Min); 17.6 ± 2.2 s in the series “Catalepsy bar test” (0.5 mg/kg, 120 Min, * P < 0.001 vs vehicle). Also, the “Catalepsy Score” value in the series “Catalepsy bar test” (0.5 mg/kg, 180 Min, * P < 0.001 vs vehicle) was found to be 33.5 ± 8.3 s; in the series “Catalepsy bar test” (0.5 mg/kg, Pre), 0.9 ± 0.2 s; in the series “Catalepsy bar test” (1.0 mg/kg, 60 Min, * P < 0.001 vs vehicle), 10.6 ± 6.3 s; in the series “Catalepsy bar test” (1.0 mg/kg, 120 Min, * P < 0.001 vs vehicle), 100.0 ± 46.2 s; in “Catalepsy bar test” (1.0 mg/kg, 180 Min, * P < 0.001 vs vehicle) it was 123.9 ± 39.7 s; in “Catalepsy bar test” (1.0 mg/kg, Pre), 1.2 ± 0.4 s. The “Catalepsy Score” value in series [2] (60 Min) turned out to be 9.72 ± 2.1 s; in series [2] (120 Min) it was 27.42 ± 6 s; in series [2] (180 Min), 30.61 ± 6.4 s; in series [2] (Pre) it was 3.12 ± 0.61 s.
On to `Nc1ccc(NC(=O)N2NC(=O)[C@@H](c3ccccc3)[C@@H]2c2ccccc2)cc1` (relative stereo) [Example 10, 1-[(4-Aminophenyl)aminocarbonyl]-4,5-diphenyl-3-pyrazolidinone], for which the inhibition at 10 µM turned out to be 4% in series [1] and 57% at brain CCK receptor (at 10 μM, read-out: Brain Percent Inhibition). The results for the pKa in the series “pKa by titration” (first or only value) and in the series “pKa by titration” (second value) were 4.5 and 8.1, respectively.
As to `CN(C)c1ccc(NC(=O)N2NC(=O)[C@@H](c3ccccc3)[C@@H]2c2ccccc2)cc1` (relative stereo) [Example 2, 1-[(4-N,N-Dimethylaminophenyl)aminocarbonyl]-4,5-diphenyl-3-pyrazolidinone], the inhibition at 10 µM in series [1] amounted to 14%. Also, the pKa in the series “pKa by titration” (first or only value) was 4; in the series “pKa by titration” (second value) it was 7.9. Moreover, the IC50 on brain CCK receptor came out at 290 nM.
`O=C1NN(C(=O)c2cc3ccccc3[nH]2)[C@@H](c2ccccc2)[C@@H]1c1ccccc1` (relative stereo) [Example 14, 1-(Indole-2-carbonyl)-4,5-diphenyl-3-pyrazolidinone]: the inhibition at 10 µM in series [1] is 60%. Further, in “pKa by titration” (first or only value), the pKa was 6.75. Also, the IC50 on brain CCK receptor was 2600 nM.
Take `O=C1NN(C(=O)Oc2ccc(Cl)cc2)[C@@H](c2ccccc2)[C@@H]1c1ccccc1` (relative stereo) [Example 6, 1-[(4-Chlorophenyl)oxycarbonyl]-4,5-diphenyl-3pyrazolidinone]: the inhibition at 10 µM in series [1] was found to be 15%. For the same compound, the pKa in the series “pKa by titration” (first or only value) was 7.8. For the same compound, the IC50 on brain CCK receptor was 4400 nM.

These data come from US5399565A, “Pyrazolidinone CCK and gastrin antagonists and pharmaceutical formulations therof” (priority 1993, dated 1995).
